Test results as given in patent publication US10919935B2, “Antimicrobial peptide derived from myxinidin peptide and uses thereof” (INDUSTRY-ACADEMIC COOPERATION FOUNDATION, CHOSUN UNIVERSITY, priority 2015, dated 2021).
Residues, ends and D or L forms follow the SMILES beside them.

How the values were obtained:
[1] = test system: Escherichia coli ATCC 25922; assay type: cell-based
Protocol: (§1) To compare the antimicrobial activity of the peptide produced by the method of Example 1, the inventors of the present invention measured the growth minimum inhibitory concentration (MIC), which is minimum concentration of the peptide showing no dissociation of bacterial cells.
(§2) Specifically, the bacterial strain described in the following Table 2 was purchased and cultured in each medium to a mid-log phase. Then, after dilution to bacterial cell concentration of 2×10^5 cells/100 μl, the cells were inoculated to a microtiter plate (NUNC, USA). Thereafter, myxinidin 1, myxinidin 2, or myxinidin 3 peptides which have been synthesized in Example 1 above was diluted, 1/2 times for each, with BSA (bovine serum albumin) solution in a 96-well plate. After adding the cells to a plate, the cells were cultured for 12 hours at 37° C. By using a microtiter plate reader (Merck Elisa reader, Germany), the absorbance was measured at a wavelength of 600 nm to determine the MIC value of each bacterial strain. As a control group, myxinidin as a mother peptide was subjected to the same processes as above and the MIC value of each bacterial strain was obtained.

[2] = test system: Escherichia coli CCARM 1229; assay type: cell-based
Protocol: as §1, §2

[3] = test system: Escherichia coli CCARM 1238; assay type: cell-based
Protocol: as §1, §2

[4] = test system: Listeria monocytogenes KCTC 3710; assay type: cell-based
Protocol: as §1, §2

[5] = test system: Pseudomonas aeruginosa ATCC 27853; assay type: cell-based
Protocol: as §1, §2

[6] = test system: Pseudomonas aeruginosa Isolated strain 3592; assay type: cell-based
Protocol: as §1, §2

[7] = test system: Pseudomonas aeruginosa Isolated strain 5018; assay type: cell-based
Protocol: as §1, §2

[8] = test system: Salmonella typhimurium CCARM 8009; assay type: cell-based
Protocol: as §1, §2

[9] = test system: Salmonella typhimurium CCARM 8013; assay type: cell-based
Protocol: as §1, §2

[10] = test system: Salmonella typhimurium KCTC 1926; assay type: cell-based
Protocol: as §1, §2

[11] = test system: Staphylococcus aureus ATCC 25923; assay type: cell-based
Protocol: as §1, §2

[12] = test system: Staphylococcus aureus CCARM 3114; assay type: cell-based
Protocol: as §1, §2

[13] = test system: Staphylococcus aureus CCARM 3709; assay type: cell-based
Protocol: as §1, §2

[14] = test system: S. aureus 3114; test: MIC at salt concentration (Example 3); assay type: cell-based, Staphylococcus aureus
Protocol: (§3) To compare the antimicrobial activity of the peptide produced by the method of Example 1, the inventors of the present invention measured the minimum growth inhibitory concentration (MIC), which is minimum concentration of the peptide showing no dissociation of bacterial cells, at salt concentration.
as §2, with “above” for “following”, “was” for “was purchased and”, “BSA+150 mM sodium chloride (NaCl) solution, physiological saline (PBS) solution, or 10 mM sodium phosphate (SP)” for “BSA (bovine serum albumin)”

[15] = test system: S. aureus; test: MIC at salt concentration (Example 3); assay type: cell-based, Staphylococcus aureus
Protocol: as §3
as §2, with “above” for “following”, “was” for “was purchased and”, “BSA+150 mM sodium chloride (NaCl) solution, physiological saline (PBS) solution, or 10 mM sodium phosphate (SP)” for “BSA (bovine serum albumin)”

[16] = test system: P. aeruginosa 3592; test: MIC at salt concentration (Example 3); assay type: cell-based, Pseudomonas aeruginosa
Protocol: as §3
as §2, with “above” for “following”, “was” for “was purchased and”, “BSA+150 mM sodium chloride (NaCl) solution, physiological saline (PBS) solution, or 10 mM sodium phosphate (SP)” for “BSA (bovine serum albumin)”

[17] = test system: P. aeruginosa 5018; test: MIC at salt concentration (Example 3); assay type: cell-based, Pseudomonas aeruginosa
Protocol: as §3
as §2, with “above” for “following”, “was” for “was purchased and”, “BSA+150 mM sodium chloride (NaCl) solution, physiological saline (PBS) solution, or 10 mM sodium phosphate (SP)” for “BSA (bovine serum albumin)”

[18] = test system: P. aeruginosa; test: MIC at salt concentration (Example 3); assay type: cell-based, Pseudomonas aeruginosa
Protocol: as §3
as §2, with “above” for “following”, “was” for “was purchased and”, “BSA+150 mM sodium chloride (NaCl) solution, physiological saline (PBS) solution, or 10 mM sodium phosphate (SP)” for “BSA (bovine serum albumin)”

[19] = test system: P. aeruginosa; test: Anti-biofilm activity (crystal violet); assay type: cell-based, Pseudomonas aeruginosa
Protocol: (§4) To compare the antimicrobial activity of the peptide produced by the method of Example 1, the inventors of the present invention measured the biofilm inhibitory concentration value of the peptide showing no dissociation of bacterial cells.
(§5) Specifically, the Gram-negative bacteria and Gram-positive bacteria among the bacterial strains described in the above Table 2 were cultured in each medium to a mid-log phase. Then, after dilution to bacterial cell concentration of 5×10^5 cells/100 μl, the cells were inoculated to a microtiter plate (NUNC, USA). Thereafter, myxinidin 1, myxinidin 2, or myxinidin 3 peptides which have been synthesized in Example 1 above was diluted, 1/10 times for each, with physiological saline (PBS) solution in a 96-well plate. After adding the cells to a plate, the cells were cultured for 12 hours at 37° C. After removing the supernatant, the cells were fixed with 100% methanol and reacted for 2 hours with Crystal violet staining solution followed by rinsing for 3 times. Then, after dissolving in 95% ethanol, the absorbance was measured at a wavelength of 595 nm by using a microtiter plate reader (Merck Elisa reader, Germany) to determine the biofilm inhibitory concentration value of each bacterial strain. As a control group, myxinidin as a mother peptide was subjected to the same processes as above and the biofilm inhibitory concentration value of each bacterial strain was obtained.

[20] = test system: S. aureus; test: Anti-biofilm activity (crystal violet); assay type: cell-based, Staphylococcus aureus
Protocol: as §4, §5

[21] = NaCl (BSA+150 mM sodium chloride)

Q: With `CC[C@H](C)[C@H](NC(=O)[C@H](Cc1c[nH]c2ccccc12)NC(=O)[C@H](CCCNC(=N)N)NC(=O)[C@@H](NC(=O)[C@@H](N)CCCNC(=N)N)[C@@H](C)CC)C(=O)N[C@@H](CC(C)C)C(=O)N[C@@H](CCCNC(=N)N)C(=O)N[C@@H](Cc1ccc(O)cc1)C(=O)N[C@@H](Cc1c[nH]c2ccccc12)C(=O)N[C@@H](CCCNC(=N)N)C(=O)N[C@@H](Cc1c[nH]c2ccccc12)C(=O)N[C@@H](CO)C(N)=O` [Myxinidin 3, RIRWILRYWRWS-NH2] (H-RIRWILRYWRWS-NH2; N-terminus assumed) as the molecule, how does the “Minimum growth inhibitory concentration” value [1] read?
A: Its value is 0.5 µM.

Q: What about the “Minimum growth inhibitory concentration” value [2] of the same molecule?
A: Its value is 1 µM.

Q: What about the “Minimum growth inhibitory concentration” value [3] of the same molecule?
A: Its value is 2 µM.

Q: And the “Minimum growth inhibitory concentration” value [4]?
A: The value was 1 µM.

Q: And the “Minimum growth inhibitory concentration” value [5]?
A: The value was 2 µM.

Q: What about the “Minimum growth inhibitory concentration” value [6] of the same molecule?
A: The value was 8 µM.

Q: What about the “Minimum growth inhibitory concentration” value [7] of the same molecule?
A: The value was 8 µM.

Q: What about the “Minimum growth inhibitory concentration” value [8] of the same molecule?
A: The value was 4 µM.

Q: What about the “Minimum growth inhibitory concentration” value [9] of the same molecule?
A: Its value is 4 µM.

Q: And the “Minimum growth inhibitory concentration” value [10]?
A: The value was 1 µM.

Q: And the “Minimum growth inhibitory concentration” value [11]?
A: The value was 0.25 µM.

Q: What about the “Minimum growth inhibitory concentration” value [12] of the same molecule?
A: The value was 8 µM.

Q: What about the “Minimum growth inhibitory concentration” value [13] of the same molecule?
A: Its value is 2 µM.

Q: And the “Antimicrobial activity (MIC) according to salt concentration” value (“Antimicrobial activity (MIC) according” below) [14, 21]?
A: The value was 16.

Q: What about the “Antimicrobial activity (MIC) according” value ([14]; PBS) of the same molecule?
A: Its value is 4.

Q: What about the “Antimicrobial activity (MIC) according” value ([14]; SP (10 mM sodium phosphate)) of the same molecule?
A: The value was 4.

Q: What about the “Antimicrobial activity (MIC) according” value [15, 21] of the same molecule?
A: Its value is 0.25.

Q: And the “Antimicrobial activity (MIC) according” value ([15]; PBS)?
A: Its value is 1.

Q: What about the “Antimicrobial activity (MIC) according” value ([15]; SP (10 mM sodium phosphate)) of the same molecule?
A: The value was 1.

Q: What about the “Antimicrobial activity (MIC) according” value [16, 21] of the same molecule?
A: Its value is 8.

Q: And the “Antimicrobial activity (MIC) according” value ([16]; PBS)?
A: Its value is 4.

Q: What about the “Antimicrobial activity (MIC) according” value ([16]; SP (10 mM sodium phosphate)) of the same molecule?
A: Its value is 4.

Q: And the “Antimicrobial activity (MIC) according” value [17, 21]?
A: Its value is 8.

Q: What about the “Antimicrobial activity (MIC) according” value ([17]; PBS) of the same molecule?
A: Its value is 4.

Q: What about the “Antimicrobial activity (MIC) according” value ([17]; SP (10 mM sodium phosphate)) of the same molecule?
A: The value was 2.

Q: And the “Antimicrobial activity (MIC) according” value [18, 21]?
A: Its value is 4.

Q: And the “Antimicrobial activity (MIC) according” value ([18]; PBS)?
A: The value was 4.

Q: And the “Antimicrobial activity (MIC) according” value ([18]; SP (10 mM sodium phosphate))?
A: Its value is 4.

Q: What about the Biofilm forming ability ([19]; peptide 0.25 μM) of the same molecule?
A: The Biofilm forming ability was 100%.

Q: And the Biofilm forming ability ([19]; peptide 0.5 μM)?
A: Its Biofilm forming ability is 97%.

Q: What about the Biofilm forming ability ([19]; peptide 1 μM) of the same molecule?
A: Its Biofilm forming ability is 97%.

Q: What about the Biofilm forming ability ([19]; peptide 2 μM) of the same molecule?
A: The Biofilm forming ability was 64%.

Q: What about the Biofilm forming ability ([19]; peptide 4 μM) of the same molecule?
A: The Biofilm forming ability was 8%.

Q: And the Biofilm forming ability ([19]; peptide 8 μM)?
A: The Biofilm forming ability was 7%.

Q: What about the Biofilm forming ability ([19]; peptide 16 μM) of the same molecule?
A: The Biofilm forming ability was 7%.

Q: What about the Biofilm forming ability ([19]; peptide 32 μM) of the same molecule?
A: Its Biofilm forming ability is 7%.

Q: What about the Biofilm forming ability ([20]; peptide 0.25 μM) of the same molecule?
A: Its Biofilm forming ability is 85%.

Q: And the Biofilm forming ability ([20]; peptide 0.5 μM)?
A: The Biofilm forming ability was 84%.

Q: What about the Biofilm forming ability ([20]; peptide 1 μM) of the same molecule?
A: The Biofilm forming ability was 84%.

Q: And the Biofilm forming ability ([20]; peptide 2 μM)?
A: Its Biofilm forming ability is 71%.

Q: What about the Biofilm forming ability ([20]; peptide 4 μM) of the same molecule?
A: Its Biofilm forming ability is 28%.

Q: And the Biofilm forming ability ([20]; peptide 8 μM)?
A: Its Biofilm forming ability is 17%.

Q: And the Biofilm forming ability ([20]; peptide 16 μM)?
A: The Biofilm forming ability was 16%.

Q: What about the Biofilm forming ability ([20]; peptide 32 μM) of the same molecule?
A: The Biofilm forming ability was 14%.
